Source: patent publication US9776976B2, “Triazolone compounds and uses thereof” (Inception 2, Inc., priority 2013, dated 2017)

Key:
Assay type in all cases: cell-based
Human PPARα = target: T1, Human PPARα (Homo sapiens, UniProt Q07869); assay: Human PPARα Reporter Assay (luciferase, Indigo Biosciences); details: antagonist mode, reporter cells, overnight incubation
T1 construct: host or cells: proprietary non-human mammalian cells
T1 sequence (Q07869 1-468): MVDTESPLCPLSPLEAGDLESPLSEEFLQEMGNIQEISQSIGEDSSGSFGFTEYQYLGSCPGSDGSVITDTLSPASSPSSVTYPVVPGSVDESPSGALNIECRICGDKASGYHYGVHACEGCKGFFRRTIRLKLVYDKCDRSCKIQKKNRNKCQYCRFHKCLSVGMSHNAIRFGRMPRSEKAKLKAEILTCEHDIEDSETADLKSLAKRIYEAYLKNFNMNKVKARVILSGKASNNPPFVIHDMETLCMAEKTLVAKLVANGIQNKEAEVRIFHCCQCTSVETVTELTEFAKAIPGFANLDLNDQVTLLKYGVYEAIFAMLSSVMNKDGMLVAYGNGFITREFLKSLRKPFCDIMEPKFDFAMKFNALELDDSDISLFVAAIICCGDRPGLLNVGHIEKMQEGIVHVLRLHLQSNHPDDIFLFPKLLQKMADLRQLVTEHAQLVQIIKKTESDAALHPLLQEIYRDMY
Protocol: Human PPARα Reporter Assay The screening of test compounds for agonist or antagonist activities against human PPARα receptors was performed using a commercial kit, Human PPARα Reporter Assay System (Indigo Biosciences, Cat. #IB00111). This nuclear receptor assay system utilizes proprietary non-human mammalian cells engineered to provide constitutive, high-level expression of Human PPARα. Because these cells incorporate a PPARα-responsive luciferase reporter gene, quantifying expressed luciferase activity provides a sensitive surrogate measure of PPARα activity in the treated cells. The primary application of this reporter assay system is in the screening of test samples to quantify any functional activity, either agonist or antagonist, that they may exert against human PPARα. […] Briefly, reporter cells are dispensed into wells of the assay plate and then immediately dosed with test compounds. Following an overnight incubation, the treatment media is discarded and Luciferase Detection Reagent (LDR) is added. The intensity of light emission from the ensuing luciferase reaction provides a sensitive measure that is directly proportional to the relative level of PPARα activation in the reporter cells.

human PPAR β/δ = target: T2, human PPAR β/δ (Homo sapiens, UniProt Q03181); assay: Human PPAR β/δ reporter assay (luciferase, Indigo Biosciences kit); details: antagonist mode, agonist at ~EC80; read-out: PPARδ Luciferase IC50
T2 construct: host or cells: engineered reporter cells (analogous to the PPARα kit)
T2 sequence (Q03181 1-441): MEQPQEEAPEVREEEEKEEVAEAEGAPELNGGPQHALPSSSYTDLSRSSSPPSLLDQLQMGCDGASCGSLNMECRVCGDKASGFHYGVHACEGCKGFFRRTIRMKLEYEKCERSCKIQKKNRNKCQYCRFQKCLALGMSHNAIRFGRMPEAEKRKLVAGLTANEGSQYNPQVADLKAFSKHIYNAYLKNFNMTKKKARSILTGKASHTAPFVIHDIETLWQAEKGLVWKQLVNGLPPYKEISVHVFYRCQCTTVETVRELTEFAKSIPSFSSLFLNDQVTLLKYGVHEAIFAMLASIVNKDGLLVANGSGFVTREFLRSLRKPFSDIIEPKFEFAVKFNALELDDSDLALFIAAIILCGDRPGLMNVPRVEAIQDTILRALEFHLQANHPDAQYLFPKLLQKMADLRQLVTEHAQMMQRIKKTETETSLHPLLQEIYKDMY
Protocol: (§1) Target Selectivity Assays
(§2) To determine species selectivity, a Mouse PPARα Reporter Assay System was used (Indigo Biosciences, Cat. #M00111). Activity of test compounds to antagonize or agonize other isoforms of human PPAR, for example β/δ and γ, were assessed using the corresponding kits from Indigo Biosciences (Cat. #IB00121 and #IB00101, respectively). In addition to PPAR activity, compounds were also screened for activity against other nuclear hormone receptors including Estrogen Receptor β, Glucocorticoid Receptor and Thyroid Receptor β using commercially available kits (Indigo Biosciences, Cat. #IB00411, IB00201 and IB01101, respectively). Each assay system from Indigo Biosciences uses technology analogous to the human PPARα kit, with the variance being that the cells used for each assay were engineered to over-express the receptor of interest. In addition, the appropriate receptor agonist (included with each kit) was used at ˜EC80 for assays in which antagonist potency was being assessed.

human PPAR γ = target: T3, human PPAR γ (Homo sapiens, UniProt P37231); assay: Human PPARγ reporter assay (Indigo Biosciences kit); details: antagonist mode, agonist at ~EC80; read-out: PPARγ
T3 sequence (P37231 1-505): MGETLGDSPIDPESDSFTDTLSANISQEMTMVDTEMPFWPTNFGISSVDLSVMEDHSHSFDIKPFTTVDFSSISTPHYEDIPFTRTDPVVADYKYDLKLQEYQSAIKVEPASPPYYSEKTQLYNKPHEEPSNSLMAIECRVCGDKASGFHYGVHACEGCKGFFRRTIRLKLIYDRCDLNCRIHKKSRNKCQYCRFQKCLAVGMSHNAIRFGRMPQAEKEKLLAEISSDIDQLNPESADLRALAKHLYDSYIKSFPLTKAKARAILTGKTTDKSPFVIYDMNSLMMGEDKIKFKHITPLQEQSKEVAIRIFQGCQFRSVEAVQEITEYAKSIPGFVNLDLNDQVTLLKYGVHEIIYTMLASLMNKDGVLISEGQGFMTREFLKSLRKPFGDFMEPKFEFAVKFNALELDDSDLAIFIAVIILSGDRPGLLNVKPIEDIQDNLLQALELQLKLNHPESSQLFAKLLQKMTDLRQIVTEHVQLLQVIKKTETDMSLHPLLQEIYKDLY
Protocol: as §1, §2

| Structure (SMILES) | IC50 (Human PPARα) | IC50 (human PPAR β/δ) | IC50 (human PPAR γ) |
| --- | --- | --- | --- |
| COc1ccc(-c2ccc(CCCc3nn(-c4ccc(C(F)(F)F)cc4)c(=O)n3Cc3ccccc3F)cc2)cc1CC(=O)O [Example 15, 2-(4′-(3-(4-(2-fluorobenzyl)-5-oxo-1-(4-(trifluoromethyl)phenyl)-4,5-dihydro-1H-1,2,4-triazol-3-yl)propyl)-4-methoxy-[1,1′-biphenyl]-3-yl)acetic acid] | 38800 nM | 8360 nM | > 100000 nM |
| CCOc1ccc(-c2ccc(CCCc3nn(-c4ccc(C(F)(F)F)cc4)c(=O)n3C3CCC(C)CC3)cc2)cc1CC(=O)O (stereo not drawn) [Example 5] | 109 nM | 125 nM | 40000 nM |
| CCOc1ccc(-c2ccc(CCCc3nn(-c4ccc(C(F)(F)F)cc4)c(=O)n3-c3cc(F)ccc3F)cc2)cc1CC(=O)O [Example 22] | 88 nM | 61 nM | 44500 nM |
| CCOc1ccc(-c2ccc(CCCc3nn(-c4ccc(C(F)(F)F)cc4)c(=O)n3-c3ccccc3F)cc2C)cc1C(=O)O [Example 11, 4-ethoxy-4′-(3-(4-(2-fluorophenyl)-5-oxo-1-(4-(trifluoromethyl)phenyl)-4,5-dihydro-1H-1,2,4-triazol-3-yl)propyl)-2′-methyl-[1,1% biphenyl-]-3-carboxylic acid] | 42 nM | 124 nM | 24800 nM |
| CCCn1c(CCCc2ccc(-c3cccc(NS(=O)(=O)c4ccccc4)n3)cc2)nn(-c2ccc(C(F)(F)F)cc2)c1=O [Example 13, N-(6-(4-(3-(5-oxo-4-propyl-1-(4-(trifluoromethyl)phenyl)-4,5-dihydro-1H-1,2,4-triazol-3-yl)propyl)phenyl)pyridin-2-yl)benzenesulfonamide] | 182 nM | 1160 nM | > 100000 nM |
| CCOc1ccc(-c2ccc(CCCc3nn(-c4ccc(C(F)(F)F)cc4Cl)c(=O)n3-c3ccccc3F)cc2)cc1CC(=O)O [Example 33, 2-(4-ethoxy-4′-(3-(4-(2-fluorophenyl)-5-oxo-1-(2-chloro-4-(trifluoromethyl)phenyl)-4,5-dihydro-1H-1,2,4-triazol-3-yl)propyl)-[1,1′-biphenyl]-3-yl)acetic acid] | 138 nM | 746 nM | 32300 nM |
| CCOc1ccc(-c2ccc(CCCc3nn(-c4ccc(C(F)(F)F)cc4)c(=O)n3-c3ccccc3Cl)cc2)cc1CC(=O)O [Example 19] | 31 nM | 32 nM | 22300 nM |
